One experiment relates to pS129 a-syn puncta. The experiment in a line: PFF-induced a-syn seeding, pS129 a-syn puncta in cortical neurons. Format: cell-based, rat. As to the method: PFFs synthesized from recombinant human a-syn were added to primary neuronal cultures to seed recruitment of endogenous a-syn into pS129 a-syn^+ aggregates. Recombinant human a-syn PFFs were purchased from StressMarq Biosciences (SPR-322B). Cells were plated on poly-D-lysine coated glass coverslips in 24-well cell culture plates at a density of 5 × 10^5 cells/well, and incubated at 37 °C in 5% CO2 with half media changes every 3 days. […] On day 8 post-isolation, cells were treated with 1.5 µg of recombinant a-syn PFFs. […]
Confocal images of primary cortical neurons, iPSC-derived dopaminergic neurons, and LAMP1 staining within the SN were processed using Imaris software (Oxford instruments). […] Mean pixel intensity per GFP^+ cell (for experiments using GFP-tagged peptides) or RFP^+ cell (for experiments using RFP-tagged peptides) was calculated for a-syn or LAMP1 signal using the software’s surfaces module. The software’s surfaces module was used to identify GFP^+/NeuN^+ cells, and number of pS129 a-syn^+ puncta per GFP^+/NeuN^+ cortical neuron was counted using the software’s spots module. Mean pixel intensity per RFP^+/NeuN^+ cortical neuron was calculated for Rab7, cathepsin B, or cathepsin D signals using the software’s surfaces module. […]

Another experiment has as its system A53T a-syn oligomers. Kind of experiment: Split-YFP PCA/FACS screen of A53T a-syn oligomers. It counts as cell-based, human. From the text:
We used a lentiviral library of 50,549 7-mer peptides enriched in PPI motifs[13] on a green fluorescent protein (GFP) scaffold (Fig. 1A). We infected cells in a pooled format and the amino acid sequence of each peptide served as its own barcode. By using a low multiplicity of infection followed by puromycin selection, each infected cell expressed one unique GFP-peptide. We screened for peptides that reduced a-syn-mediated cytotoxicity or a-syn oligomers in parallel (Fig. 1A). To cause cytotoxicity relevant to PD, we induced proteostatic stress in HEK293 cells by inhibiting the proteasome with MG132 and overexpressing human WT a-syn associated with idiopathic PD in one screen or the more toxic mutant A53T a-syn associated with familial PD in a second screen. This combination of a-syn overexpression and pharmacological proteasome inhibition led to death of most cells, with only those that expressed a protective peptide surviving. By extracting genomic DNA from the surviving cells and amplifying the peptide coding sequences, we identified the protective peptides (Fig. 1A). To detect a-syn oligomers, we used a protein fragment complementation assay (PCA) of a-syn oligomerization in HEK293 cells. In this assay, human A53T a-syn was fused to either the C- or N-terminal half of yellow fluorescent protein (YFP). No fluorescence is detectable while a-syn exists in monomers but, when a-syn oligomerizes, the two halves of YFP come in close enough proximity to form a functional, spontaneously fluorescent protein. […] Our screens yielded 10 hits (Table S1). The hit with the most reads (i.e., the most abundant) was the same peptide in all screens: IPIQLKA (named PDpep1) (Table S1). We validated the cytoprotective effects of PDpep1 in HEK293 cells overexpressing WT or A53T a-syn (Figs. 1B, S1A), as well as its ability to reduce WT or A53T a-syn oligomers in a luciferase-based PCA[18]–[20] compared to a scrambled control peptide (Figs. 1C, S1B).
HEK293T cells (ATCC, CRL-3216) were maintained in DMEM supplemented with 10% FBS and 1% pen/strep/glutamine, and the appropriate selection antibiotics when required. Lentiviruses were made in a 15 cm dish format by transfecting packaging cells (HEK293T) with a three-plasmid system (expression vector, psPAX2 and pMD2.G) and using Polyjet DNA transfection reagent (FroggaBio, SL100688.1). Viral transduction of HEK293T cells were performed with a multiplicity of infection (MOI) of 0.3. Infected cells were selected in puromycin-containing medium to eliminate uninfected cells and three aliquots of cells were collected for sampling of the initial (T0) cell population. Cells were treated with MG132 at concentrations of 0, 10, 25, or 50 µM. For the cell viability screen, surviving cells were collected and gDNA was extracted for identification of peptide inhibitors of cell toxicity. For the inhibition of a-syn aggregation screen, a protein fragment complementation assay (PCA) was used by transfecting cells with split YFP-a-syn constructs following stable expression of the peptides. Cells were sorted based on their YFP fluorescence intensities with a FACSVantage SE cell sorter (BD Bioscience) and gDNA was extracted for identification of peptides.
Cells were harvested by trypsin treatment and centrifuged at 500 × g for 5 min. The pellet was resuspended in ice-cold PBS and centrifuged again. The pellet was then resuspended at a concentration of 4 × 10^6 cells/ml in the sorting buffer, which is PBS containing 100 Kunitz DNase I/ml, 10 μg/ml propidium iodide (Sigma), and 2% FBS. The cells were then sent through a 40 μm filter to remove large clumps and loaded into either a FACScan Flow Cytometer (BD Bioscience) for cell analysis or a FACSVantage SE cell sorter (BD Bioscience) for cell sorting. The cells with positive propidium iodide staining (i.e., dead cells) were first eliminated from the analysis. […]

In the case of DEEIERQLKALG [PDpep1.3], the “Effect on endogenous a-syn aggregates” value with pS129 a-syn puncta is on record as “reduced the number of endogenous a-syn aggregates”.

As to “IPIQLKA [PDpep1, initial screen hit peptide IPIQLKA]”, in the experiment on A53T a-syn oligomers, the “Reads GFP High” value was 12, the “Reads GFP Inter” value is reported as 2853, the “Reads GFP Neg” value was found to be 15556 and the “Reads Ratio” value is given as 1,218.98.

The record behind these values is paper PMC10115881, “Disrupting the α-synuclein-ESCRT interaction with a peptide inhibitor mitigates neurodegeneration in preclinical models of Parkinson’s disease” (Nature Communications, 2023).
